pIC50: −log10 of the molar value.

For this assay, the target named is T1, Renin (Homo sapiens, UniProt P00797).
T1 sequence (P00797 whole entry): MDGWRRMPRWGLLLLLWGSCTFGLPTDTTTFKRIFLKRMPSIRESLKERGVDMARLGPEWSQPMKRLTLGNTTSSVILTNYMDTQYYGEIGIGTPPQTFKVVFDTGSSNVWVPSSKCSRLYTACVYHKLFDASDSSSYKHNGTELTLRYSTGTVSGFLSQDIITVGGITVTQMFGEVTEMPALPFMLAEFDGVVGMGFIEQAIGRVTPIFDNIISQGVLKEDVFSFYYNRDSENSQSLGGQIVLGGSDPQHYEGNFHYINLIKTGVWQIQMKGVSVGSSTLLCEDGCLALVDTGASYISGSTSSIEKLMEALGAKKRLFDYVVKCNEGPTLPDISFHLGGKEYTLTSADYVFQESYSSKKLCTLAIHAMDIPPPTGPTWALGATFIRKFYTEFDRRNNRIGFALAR
Briefly: Inhibition against recombinant human renin (rHR).

On to `CSC[C@H](NC(=O)CNC(=O)N1CCC(=O)CC1)C(=O)N[C@@H](Cc1ccccc1)[C@@H](O)[C@@H](O)CC(C)C`, for which the pIC50 is 4.80.

In the case of `CSC[C@H](NC(=O)CNC(=O)N1CCC(=O)CC1)C(=O)N[C@@H](Cc1ccc(-c2ccccc2)cc1)[C@@H](O)[C@@H](O)CC(C)C`, the pIC50 is 6.89.

Regarding `CSC[C@H](NC(C)=O)C(=O)N[C@@H](CC1CCCCC1)[C@@H](O)[C@@H](O)CC(C)C`, the pIC50 is 5.29.

For the molecule `CSC[C@H](NC(=O)CNC(=O)N1CCC(=O)CC1)C(=O)N[C@@H](Cc1ccc(Oc2ccccc2)cc1)[C@@H](O)[C@@H](O)CC(C)C`, the pIC50 was 7.18.

Regarding `CSC[C@H](NC(=O)CNC(=O)N1CCC(=O)CC1)C(=O)N[C@@H](CC1CCCCC1)[C@@H](O)[C@@H](O)CC(C)C`, the pIC50 was 5.92.

As to `CSC[C@H](NC(=O)CNC(=O)N1CCC(=O)CC1)C(=O)N[C@@H](Cc1cccc(-c2ccccc2)c1)[C@@H](O)[C@@H](O)CC(C)C`, the pIC50 was 6.96.

For `CSC[C@H](NC(=O)[C@H](Cc1ccccc1)NC(=O)N1CCC(=O)CC1)C(=O)N[C@@H](CC1CCCCC1)[C@@H](O)[C@@H](O)CC(C)C`, the pIC50 is 9.52.

Regarding `CSC[C@H](NC(C)=O)C(=O)N[C@@H](Cc1ccc(-c2ccccc2)cc1)[C@@H](O)[C@@H](O)CC(C)C`, the pIC50 is 5.96.

Turning to `CSC[C@H](NC(C)=O)C(=O)N[C@@H](Cc1cccc(-c2ccccc2)c1)[C@@H](O)[C@@H](O)CC(C)C`, the pIC50 is 5.80.

For orientation: pIC50 means the IC50 on a negative log10 scale, so that one unit is a factor of ten.

(Values after ChEMBL document CHEMBL1128071, “Rational design, synthesis, and X-ray structure of renin inhibitors with extended P1 sidechains” (Bioorg Med Chem Lett, 1995).)
